These results are taken from patent US20080279961A1, “TELOMERE TARGETING AGENTS AS STEM CELLS DIRECTED TREATMENTS” (priority 2007, published 2008).

One data set deals with MCF-7 cells. Nature of the data set: human tumor stem cell assay (HTCA)/clonogenic assay. Type of data set: cell-based. Here is the method: (§1) In human tumor stem cell assay (HTCA)/clonogenic assay, single cell suspensions from in vivo studies above were washed in medium and passed through sieves and the resulting single cell suspensions seeded into soft agar (n=3 tumors per group) as described by us before (Fiebig et al., 2004). Single cell suspensions of cell lines were prepared by trypsinization from cells growing as monolayers on plastic. Briefly, 5,000 (HEK293T cells), 10,000 (PC3, MCF-7 and UXF1138L cells) or 50,000 (UXF1138L tumor tissue) vital cells were added to 0.2 ml Iscove's medium/20% fetal bovine serum/0.05% gentamycin containing 0.4% agar and plated on top of a base layer consisting of 0.2 ml medium with 0.75% agar. The next day, the agar layers were fed with Isocve's medium and cultures incubated at 37° C., 7% CO2 for approximately 11 days. Vital colonies were stained with 2-(4-iodophenyl)-3-(4-nitrophenyl)-5-phenyltetrazolium chloride (1 mg/ml) 24 hrs before evaluation, and colonies >70 μm were counted with an automated image analysis system (Omincon FAS IV, BIOSYS GmbH, Karben, Germany). Drug effect was assessed as growth inhibitory concentrations 50 and 70% (IC50, IC70). Methylcellulose was used to grow cord blood stem cells instead of soft agar. The seeding density was 20,000 cells/well. Stem cell growth factor supplemented and optimized methylcellulose (Methocult H4434) was purchased from Stem Cell Technologies (Vancouver, CA). Methylcellulose lacking growth factors was used as negative growth control. Statistical significance between treatment groups was evaluated by using the Student T-test.
(§2) The growth inhibitory activity of RHPS4 in human bulk tumor cells have been compared, by MTT assay, against RHPS4 activity in tumor cells grown as colonies in the clonogenic assay, also termed the human tumor stem cell assay (HTCA) (FIG. 2A-B). HEK293T human embryonic kidney cells grown in the HTCA, and cord blood cells cultured in methylcellulose were also treated with RHPS4 (FIG. 2C). The MTT assay is a 5 day proliferation test measuring effects on a morphologically heterogeneous, differentiated cell population (bulk cells), whereas the HTCA and methylcellulose assays are longer term (10-15 day) tests in which only a very small fraction of a bulk culture (˜0.1-1%) will grow as colonies. Cells growing anchorage-independently as colonies in a semi-solid matrix are considered to be pluripotent stem cells (Hamburger & Salmon, 1977; Locke et al., 2005; Fiebig et al. 2004). […] Similar observations were made with the breast cancer cell line MCF-7 (shown in FIG. 2B, HTCA IC50=0.04 microM; bulk cell IC50=2 microM).

The test system of the next data set is PC3 cells. Described as above. Type of data set: cell-based. To be noted: PC3 colonies; read-out: IC50 colony growth in the HTCA. Here is the method: as §1, §2
Data set [1] deals with UXF1138L cells. Described as above. Type of data set: cell-based. Particulars: UXF1138L colonies; read-out: IC50 colony growth in the HTCA. Here is the method:
as §1, §2

Data set [2] deals with UXF1138L cells. Nature of the data set: metaphase spreads. Type of data set: cell-based, human. To be noted: 1 microM, 24 hrs. On the procedure: To prepare metaphase spreads, cells were grown to 70% confluency and treated with 1 μM RHPS4 or PBS (vehicle control) for 24 hours in a T75 tissue culture flask. Supernatants were then replaced with media containing 10 μg/ml Colcemid (Sigma) and incubated for 90-120 minutes at 37° C. Next, cells were trypsinized and centrifuged at 500×g for 5 minutes; 8 ml 60 mmol/l KCl was added to the pellets and the cell suspension incubated for 20 minutes at 37° C. In a pre-fixation step, 2 ml freshly made fixative (methanol/glacial […] 3:1) was added on top of the hypotonic suspension and mixed carefully by turning the tube. After 10 minutes at RT, the mix was centrifuged at 600×g for 10 min. and the supernatant removed. For fixation, 10 ml fixative were added and the mix is kept at RT for 10 min. and centrifuged as above, the step was repeated 2 more times. Then, 0.5 ml fresh fixative was added to obtain a milky suspension of cells without clumps. Cleaned slides were placed horizontally at a 45° angle and 100 μl of cell solution dropped onto the slide from a distance of about 20 cm. Slides were dried at RT or directly dehydrated through an ethanol series of 70%, 90% and 100%. After dehydration, slides were rinsed in PBS and incubated with 0.1 μg/ml DAPI (4′, 6-diamidino-2-phenylindole)/PBS for 30 minutes at RT. […]

A short description of another data set: water solubility. Type of data set: physicochemical. The text has this:
RHPS4 was synthesized as described (Heald et al 2002). RHPS4 is water-soluble and was therefore dissolved in phosphate buffered saline (PBS). For in vitro studies paclitaxel (Taxol) was purchased from Sigma (St. Louis, Mo.) and dissolved in dimethylsulfoxide (DMSO); for in vivo experiments the clinical formulation was used and obtained Cremophor from Bristol-Myers Squibb, New York, N.Y.

“Also recorded” adds a separate entry of the source.

`COS(=O)(=O)[O-].Cc1cc2c3c([n+](C)c4ccc(F)cc4c3c1)-c1cc(F)ccc1N2C` [RHPS4, 3,11-difluoro-6,8,13-trimethyl-8H-quino[4,3,2-kl]acridinium methosulfate]: in the data set on MCF-7 cells (MCF-7), the “activity in colonies (HTCA) versus whole cell populations” value is recorded as “two log-fold”. For the same compound, the IC50 was 0.04 µM in the data set on MCF-7 cells (MCF-7 colonies, read-out: IC50 colony growth in the HTCA); 0.03 µM in the data set on PC3 cells; 0.02 µM in the data set on UXF1138L cells [1]. The “chromosome morphology in metaphase spreads” value in the data set with UXF1138L cells [2] is “marked increase in end-to-end joining; also recorded: ring and dicentric chromosomes”. Also, the solubility in water entry in the data set “water solubility” is on record as “water-soluble”.
